Results on 1 molecule are retold here after article PMC8462848, “Quinazolin-4(3H)-one based potential multiple tyrosine kinase inhibitors with excellent cytotoxicity” (Journal of Enzyme Inhibition and Medicinal Chemistry, 2021).

The target of one series is T1, HER2 (Homo sapiens, UniProt P04626).
T1 construct: purchased #40721
The series can be described thus: HER2 kinase assay kit, Kinase-Glo MAX luminescence. Type of series: biochemical. The method, then:
(§1) The HER2/EGFR/VEGFR2 assay kit is designed to measure HER2/EGFR/VEGFR-2 inhibitory activity for screening and profiling applications, using Kinase-Glo® MAX as a detection reagent. The HER2/EGFR/VEGFR2 assay kit comes in a convenient 96-well format, with enough purified recombinant HER2/EGFR/VEGFR2 enzyme, HER2/EGFR/VEGFR2 substrate, ATP and kinase buffer 1 for 100 enzyme reactions. […] […] The quinazolin-4(3H)-ones were diluted in 10% DMSO and 5 μl of the dilution was added to a 50 μl reaction so that the final concentration of DMSO was 1% in all of the reactions. All of the enzymatic reactions were conducted at 30 °C for 40 min. The 50 μl reaction mixture contained 40 mM Tris, pH 7.4, 10 mM MgCl2, 0.1 mg/mL BSA, 1 mM DTT, 10 mM ATP, kinase substrate and the enzyme HER2 / EGFR / VEGFR2. After the enzymatic reaction, 50 μl of Kinase-Glo® MAX luminescence kinase assay solution was added to each reaction and the plates were incubated for 5 min at room temperature. Luminescence signal was measured using a Bio Tek Synergy 2 microplate reader (For detail enzyme assay protocol and the results, please see supplementary data).

The test system of series [1] is A2780 (human ovary adenocarcinoma) cells. The experiment in a line: MTT cytotoxicity assay, A2780. Type of series: cell-based. Conditions: Homo sapiens, A2780, mean ± SD of triplicate. The method, then: (§2) The cytotoxicity of the synthesised quinazolin-4(3H)-ones was evaluated by MTT assay, as previously described. Two cancer cell lines, MCF7 (human breast adenocarcinoma) and A2780 (human ovary adenocarcinoma), were used in this study, which were obtained from the ATCC (Rockville, MD, USA). […] Additionally, compounds were prepared at the same medium to obtain serial dilutions (50, 25, […] and 0.1 µM). […] The media were aspirated, and the formazan crystals were solubilised by adding 150 µL DMSO. Absorbance was read on a multi-plate reader (BioRad) at […]. […] The data were obtained from triplicates and analysed using statistical software.

The subject of series [2] is MCF7 (human breast adenocarcinoma) cells. The experiment in a line: MTT cytotoxicity assay, MCF7. Type of series: cell-based. As to conditions: Homo sapiens, MCF7, mean ± SD of triplicate. The procedure:
as §2

The target in series [3] is T2, CDK2/CyclinA2 (Homo sapiens, UniProt P24941).
T2 construct: purchased #79599
The series can be described thus: CDK2 Assay Kit, Kinase-Glo MAX luminescence. Type of series: biochemical. As to conditions: one experimental data. The method, then:
The CDK2 Assay Kit is designed to measure CDK2/CyclinA2 activity for screening and profiling applications, using Kinase-Glo® MAX as a detection reagent. The CDK2 Assay Kit comes in a convenient 96-well format, with enough purified recombinant CDK2/CyclinA2 enzyme, CDK substrate peptide, ATP and kinase assay buffer for 100 enzyme reactions. […] […] The compounds were diluted in 10% DMSO and 5 μl of the dilution was added to a 50 μl reaction so that the final concentration of DMSO was 1% in all of the reactions. All of the enzymatic reactions were conducted at 30 °C for 40 min. The 50 μl reaction mixture contained 40 mM Tris, pH 7.4, 10 mM MgCl2, 0.1 mg/mL BSA, 1 mM DTT, 10 mM ATP, Kinase substrate and the enzyme (CDK2/CyclinA2). After the enzymatic reaction, 50 μl of Kinase-Glo® MAX Luminescence kinase assay solution was added to each reaction and the plates were incubated for 5 min at room temperature. Luminescence signal was measured using a Bio Tek Synergy 2 microplate reader.
Figure S1. Calculation of the IC20 Values of Protein Kinase Enzyme CDK2 for 2f
* All the kinase IC20 (µM) were calculated according to the above equations.
(1 picture or pasted object on this page, not shown here)

For series [4], the target named is T2, CDK2/CyclinA2. The series can be described thus: CDK2 Assay Kit, Kinase-Glo MAX luminescence. Type of series: biochemical. Conditions: mean ± SD of triplicate.
In a further series the target is T3, EGFR (Homo sapiens, UniProt P00533).
T3 construct: purchased #40321
The experiment in a line: EGFR kinase assay kit, Kinase-Glo MAX luminescence. Type of series: biochemical. The procedure: as §1

The target in another series is T4, VEGFR2 (Homo sapiens, UniProt P35968).
T4 construct: purchased #40325
The experiment in a line: VEGFR2 kinase assay kit, Kinase-Glo MAX luminescence. Type of series: biochemical. The method, then: as §1

T1 sequence (P04626 23-1255): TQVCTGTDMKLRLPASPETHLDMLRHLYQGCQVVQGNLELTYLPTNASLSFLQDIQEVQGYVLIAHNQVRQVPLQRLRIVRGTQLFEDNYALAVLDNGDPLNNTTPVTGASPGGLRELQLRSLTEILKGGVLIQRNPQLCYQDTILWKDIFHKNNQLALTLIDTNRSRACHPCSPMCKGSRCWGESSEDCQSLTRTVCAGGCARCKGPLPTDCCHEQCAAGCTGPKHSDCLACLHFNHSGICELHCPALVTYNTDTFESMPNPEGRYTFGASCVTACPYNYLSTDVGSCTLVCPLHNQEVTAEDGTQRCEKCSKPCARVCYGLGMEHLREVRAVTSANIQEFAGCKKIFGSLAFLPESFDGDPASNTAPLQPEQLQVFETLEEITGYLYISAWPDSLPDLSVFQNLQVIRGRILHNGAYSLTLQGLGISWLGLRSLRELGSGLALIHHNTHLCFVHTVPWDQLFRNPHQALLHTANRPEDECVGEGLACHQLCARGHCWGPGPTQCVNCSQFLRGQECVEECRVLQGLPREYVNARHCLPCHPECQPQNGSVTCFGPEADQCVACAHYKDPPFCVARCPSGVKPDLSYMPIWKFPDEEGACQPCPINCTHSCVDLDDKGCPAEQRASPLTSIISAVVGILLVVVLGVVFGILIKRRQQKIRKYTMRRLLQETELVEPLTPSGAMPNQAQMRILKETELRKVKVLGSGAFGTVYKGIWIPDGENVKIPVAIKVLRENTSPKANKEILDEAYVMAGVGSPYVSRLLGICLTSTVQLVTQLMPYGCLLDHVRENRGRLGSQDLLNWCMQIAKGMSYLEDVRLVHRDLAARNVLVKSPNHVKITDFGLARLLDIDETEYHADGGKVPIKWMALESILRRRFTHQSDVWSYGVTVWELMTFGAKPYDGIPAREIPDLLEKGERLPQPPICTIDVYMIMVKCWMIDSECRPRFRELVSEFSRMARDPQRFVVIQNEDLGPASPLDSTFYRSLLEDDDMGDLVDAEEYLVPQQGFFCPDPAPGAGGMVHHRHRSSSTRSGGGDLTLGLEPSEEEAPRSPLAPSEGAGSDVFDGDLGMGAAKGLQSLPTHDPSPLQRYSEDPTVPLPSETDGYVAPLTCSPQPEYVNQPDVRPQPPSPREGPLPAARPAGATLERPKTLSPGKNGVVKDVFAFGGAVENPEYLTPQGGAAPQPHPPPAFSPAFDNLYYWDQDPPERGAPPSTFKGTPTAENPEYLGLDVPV
T4 sequence (P35968 20-1356): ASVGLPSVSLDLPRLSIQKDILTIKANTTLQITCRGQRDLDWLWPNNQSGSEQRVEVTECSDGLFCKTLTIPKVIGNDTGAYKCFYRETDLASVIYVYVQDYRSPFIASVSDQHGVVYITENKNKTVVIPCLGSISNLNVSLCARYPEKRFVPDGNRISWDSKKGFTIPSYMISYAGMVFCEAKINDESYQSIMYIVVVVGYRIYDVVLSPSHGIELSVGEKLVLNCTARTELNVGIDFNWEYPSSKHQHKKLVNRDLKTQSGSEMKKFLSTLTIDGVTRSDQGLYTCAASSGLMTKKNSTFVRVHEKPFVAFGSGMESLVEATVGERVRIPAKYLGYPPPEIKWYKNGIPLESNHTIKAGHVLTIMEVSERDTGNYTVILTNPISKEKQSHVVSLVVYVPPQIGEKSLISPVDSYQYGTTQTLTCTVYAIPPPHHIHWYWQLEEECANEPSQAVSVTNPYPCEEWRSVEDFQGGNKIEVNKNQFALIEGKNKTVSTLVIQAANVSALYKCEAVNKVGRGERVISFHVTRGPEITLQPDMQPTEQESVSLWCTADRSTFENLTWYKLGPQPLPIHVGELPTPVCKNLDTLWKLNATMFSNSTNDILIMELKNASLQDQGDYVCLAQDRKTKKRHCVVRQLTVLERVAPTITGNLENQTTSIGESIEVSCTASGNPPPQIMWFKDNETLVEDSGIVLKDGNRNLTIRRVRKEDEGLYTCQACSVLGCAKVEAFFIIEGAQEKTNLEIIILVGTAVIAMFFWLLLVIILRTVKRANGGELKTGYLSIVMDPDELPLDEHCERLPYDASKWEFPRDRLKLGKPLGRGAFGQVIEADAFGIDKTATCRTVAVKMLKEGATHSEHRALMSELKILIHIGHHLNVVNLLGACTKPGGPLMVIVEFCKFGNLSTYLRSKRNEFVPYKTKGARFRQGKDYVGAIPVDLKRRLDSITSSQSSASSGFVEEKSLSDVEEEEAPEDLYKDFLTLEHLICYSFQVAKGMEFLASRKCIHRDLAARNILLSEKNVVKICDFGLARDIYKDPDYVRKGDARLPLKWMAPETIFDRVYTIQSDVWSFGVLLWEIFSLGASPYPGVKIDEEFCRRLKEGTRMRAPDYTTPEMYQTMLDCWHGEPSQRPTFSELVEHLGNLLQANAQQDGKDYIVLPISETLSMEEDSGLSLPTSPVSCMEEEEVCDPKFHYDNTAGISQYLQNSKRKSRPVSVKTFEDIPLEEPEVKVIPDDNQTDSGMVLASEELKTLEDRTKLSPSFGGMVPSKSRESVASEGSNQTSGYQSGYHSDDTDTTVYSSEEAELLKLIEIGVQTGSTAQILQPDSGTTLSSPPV
T3 sequence (P00533 25-1210): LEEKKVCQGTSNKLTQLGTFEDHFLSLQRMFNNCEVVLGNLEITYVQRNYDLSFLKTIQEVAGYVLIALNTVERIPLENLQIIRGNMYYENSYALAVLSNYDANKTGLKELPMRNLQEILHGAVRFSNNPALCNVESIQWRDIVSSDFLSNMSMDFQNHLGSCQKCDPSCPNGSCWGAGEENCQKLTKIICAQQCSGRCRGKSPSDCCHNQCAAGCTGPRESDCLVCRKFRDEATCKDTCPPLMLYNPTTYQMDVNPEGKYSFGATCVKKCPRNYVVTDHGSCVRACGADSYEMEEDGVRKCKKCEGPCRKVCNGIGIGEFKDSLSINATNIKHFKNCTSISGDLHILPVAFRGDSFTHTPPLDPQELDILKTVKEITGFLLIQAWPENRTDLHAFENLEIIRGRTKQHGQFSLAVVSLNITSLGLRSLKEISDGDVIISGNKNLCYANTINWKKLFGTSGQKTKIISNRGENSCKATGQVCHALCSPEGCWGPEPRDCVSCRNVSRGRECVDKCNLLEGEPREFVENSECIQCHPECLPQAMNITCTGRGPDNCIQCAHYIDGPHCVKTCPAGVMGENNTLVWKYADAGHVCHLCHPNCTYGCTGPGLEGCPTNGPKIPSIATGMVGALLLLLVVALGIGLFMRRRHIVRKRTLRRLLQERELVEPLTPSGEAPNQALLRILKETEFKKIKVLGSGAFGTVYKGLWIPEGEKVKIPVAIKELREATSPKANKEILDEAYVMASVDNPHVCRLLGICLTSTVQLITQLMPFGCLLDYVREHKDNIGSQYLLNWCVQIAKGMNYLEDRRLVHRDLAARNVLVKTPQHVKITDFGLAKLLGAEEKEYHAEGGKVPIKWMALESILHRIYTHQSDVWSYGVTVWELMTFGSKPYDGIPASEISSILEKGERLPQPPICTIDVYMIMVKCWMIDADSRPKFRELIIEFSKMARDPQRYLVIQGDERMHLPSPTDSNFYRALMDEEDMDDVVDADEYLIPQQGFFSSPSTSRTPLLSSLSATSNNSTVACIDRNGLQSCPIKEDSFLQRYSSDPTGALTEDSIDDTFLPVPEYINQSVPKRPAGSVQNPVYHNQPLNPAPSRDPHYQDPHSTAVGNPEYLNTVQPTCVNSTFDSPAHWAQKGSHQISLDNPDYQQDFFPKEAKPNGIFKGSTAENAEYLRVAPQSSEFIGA

The molecule `Cc1cc(Cl)cc2c(=O)n(Cc3ccccc3)c(SCC(=O)NN)nc12` [3j] returned a melting point of 216 to 220 °C. Further, the inhibition at 0.01 µM on HER2 (0.01 µM, one experimental data) was 2.33%. Besides, the inhibition at 0.1 µM on HER2 (0.1 µM, one experimental data) was 39.5%. Besides, the inhibition at 1 µM on HER2 (1 µM, one experimental data) came out at 72%. The inhibition at 10 µM at HER2 (10 µM, one experimental data) worked out at 92.2%. In addition, on HER2 (mean ± SD of triplicate), the IC50 is 0.222 ± 0.012 µM. In series [1], this molecule showed an IC50 of 0.22 ± 0.03 µM. Moreover, inhibition in series [2] was half-maximal at 0.2 ± 0.02 µM (IC50). In addition, at CDK2/CyclinA2 [3] (0.01 µM), the inhibition at 0.01 µM worked out at 8.13%. The inhibition at 0.1 µM on CDK2/CyclinA2 [3] (0.1 µM) was determined as 42.8%. Besides, the inhibition at 1 µM on CDK2/CyclinA2 [3] (1 µM) worked out at 38.4%. The inhibition at 10 µM at CDK2/CyclinA2 [3] (10 µM) came out at 84%. In addition, the half-inhibitory concentration (IC50) against CDK2/CyclinA2 [4] was 0.473 ± 0.033 µM. The inhibition at 0.01 µM at EGFR (0.01 µM, one experimental data) came to 18.7%. Besides, the inhibition at 0.1 µM at EGFR (0.1 µM, one experimental data) came to 48.8%. Besides, the inhibition at 1 µM on EGFR (1 µM, one experimental data) was 81%. Further, the inhibition at 10 µM on EGFR (10 µM, one experimental data) was 89.9%. On EGFR (mean ± SD of triplicate), the IC50 stood at 0.371 ± 0.014 µM. Besides, on VEGFR2 (0.01 µM, one experimental data, read-out: % Inhibition VEGFR-2), the inhibition at 0.01 µM was determined as 1.98%. Moreover, on VEGFR2 (0.1 µM, one experimental data, read-out: % Inhibition VEGFR-2), the inhibition at 0.1 µM is 22.3%. Besides, at VEGFR2 (1 µM, one experimental data, read-out: % Inhibition VEGFR-2), the inhibition at 1 µM was 41.1%. For the same molecule, the inhibition at 10 µM at VEGFR2 (10 µM, one experimental data, read-out: % Inhibition VEGFR-2) worked out at 74.4%. The IC50 on VEGFR2 (mean ± SD of triplicate) was found to be 3.085 ± 0.016 µM.
